This is an account of results in US7414068B2, “Benzopyran derivatives substituted with secondary amines including tetrazole, method for the preparation thereof and pharmaceutical compositions containing them” (Dongbu Hannong Chemical Co., Ltd., priority 2002, dated 2008).

A short description of data set [1]: Acute oral toxicity test in rats. The conditions noted are these: SD, rat, in vivo, single oral dose, suspended in 0.5% methyl cellulose, read-out: lethal dose (LD50) for oral administration. The procedure: In this test, six-week old SPF SD rats were used with two rats assigned to each group. Each group was consisted of two rats. The compounds prepared in example 1, 7, 11, 17, 22, 24, 26, 28, 30, 32, 34, 42, 52, 54, 55, 56, 57, 59, 60, 61, 70, 75, 77, 79, 81, 83, 85, and 89 were suspended in 0.5% methyl cellulose, respectively. […] Also, hematological test and biochemical analysis were accomplished. After sacrificing the animals, autopsy was performed for macroscopic observations of the organs and tissues. As a result, there was no significant changes in clinical symptoms, body weight and mortalities. Also in hematology, serum chemistry parameters, macroscopic observation and drug-related changes were not observed.

Another data set deals with brain homogenate. Kind of data set: Inhibitory effect against lipid peroxidation by iron (MDA quantification). The conditions noted are these: 100 μM compound, FeCl2 400 μM, 37° C. 30 min. Format: biochemical, rat. The protocol: The rat brain was homogenized in a Krebs buffer (15 mM HEPES, 10 mM glucose, 140 mM NaCl, 3.6 mM KCl, 1.5 mM CaCl2, 1.4 mM KH2PO4, 0.7 mM MgCl2, PH 7.4) and the supernatant separated by centrifugation at 12,000 rpm for 10 min was used for further experiments. FeCl2 was added for the final concentration to be 400 μM. Then the brain homogenate was allowed to stand at 37° C. for 30 min for the facilitation of oxidation. Each of the test compounds was added at a concentration of 100 μM. For control group, only vehicle was applied.
Iron facilitates the oxidation of the said brain homogenate to produce malondialdehyde (MDA), lipid peroxidation product. Thus, the lipid peroxidation was determined by MDA quantification. The inhibitory effect against lipid peroxidation of the test compounds was evaluated by calculating MDA reduction rate of the test compounds compared with that of the control group.
Typically, the MDA quantification is achieved by reacting samples with 2-thiobarbituric acid (TBA) and measuring the absorbance at 530 nm. However, this method is unsuitable to treat samples on a large scale because of a boiling step. Thus, in this experiment, N-methyl-2-phenylindole was used instead of TBA.

Another data set relates to cortical neuron cells. Put plainly: Protective effect on iron-induced neuronal cell injury (LDH release). Format: cell-based. The conditions noted are these: FeSO4 50 μM; for protective effect on neuron cell: Inhibition (%, 30 μM compound addition): LDH reduction vs control; for IC50: LDH. The protocol:
From the brains of 17˜18 day-old embryos, cortical neuron cells were isolated and then, cultured at 37° C. for 7˜9 days in a 5% CO2 incubator. The said cortical cell cultures were washed twice with MEM (Minimum essential medium) to reduce the serum level to 0.2%. […] Then, the compound of the said concentration was pre-treated for 30 min, respectively. For the experiment, test compound was dissolved in DMSO and diluted in a medium. At this time, the final concentration of DMSO was not allowed to exceed 0.1%. For control group, only vehicle was applied.
After the said pre-treatment, FeSO4 was added to the medium for a final concentration to be 50 μM. The medium was cultured in CO2 incubator for 24 hours. During the incubation, lactate dehydrogenase (LDH) was released by iron. The serum level of lactate dehydrogenase released into the medium was measured to assess necrosis of neuronal cell by the oxidative toxicity of iron. The protective effect on neuron cells of the test compounds was evaluated by calculating the LDH reduction rate of treatment-group compared with that of the control group.
On the technique in general: Release of lactate dehydrogenase indicates damage to the cell membrane.

Another data set deals with isolated rat aorta. Put plainly: Vasodilating effect on blood vessel excised from rats (methoxamine-constricted aorta). As to conditions: isolated rat aorta constricted with methoxamine (3 μM); read-out: Concentration for inhibition of constriction induced by methoxamine in rat arota (IC50). An excerpt: Rats (350˜450 g, obtained from the Experimental Animal Team of the Korea Research Institute of Chemical Technology) were knocked to be unconscious by hitting the occipital region, sacrificed by cervical dislocation, and underwent thoracotomy. After being quickly removed, the thoracic aorta was deprived of the adipose tissue and cut into aortic rings of 3 mm width. The aorta was lightly rubbed with cotton club soaked in a modified Krebs Henseleit buffer (Physiological salt solution) to remove the inner epithelial layer therefrom. While being hung in an organ bath containing a physiological buffer, the vascular smooth muscle was allowed to equilibrate under a resting tension of 2 g and then, stand for 1 hour at 37° C. for stabilization, supplying a carbogen consisting of 95% O2˜5% CO2.
Thereafter, the vascular smooth muscle was constricted with 10^−5M phenylephrine and washed several times with physiological saline solution. The said procedure was repeated again to ensure the stable reactivity of vascular smooth muscle to repetitive constriction/relaxation.
Thereafter, 3×10^−6 M methoxamine was applied to induce an intensive constriction in the vascular smooth muscle. When the vasoconstriction induced by the methoxamine was reached and maintained to a maximum, test compounds and control material was cumulatively added to the organ bath in concentration of 1, 3, 10 and 30 μM, respectively, to examine the vasodilating effect. Cromakalim, BMS-180448 (the compound of formula 4) and BMS-191095 (the compound of formula 5), known to be the first generation KATP opener with potent vasodilating effect were used as control materials.
The change rate of constriction by the addition of the drugs compared to the maximal constriction induced by methoxamine was calculated to plot a concentration-relaxation response curve. Through a least linear regression analysis, IC50 that the drug concentration at which the vascular tissue is relaxed to 50% extent of the maximal constriction, was obtained for each drug.

Data set [2] has as its system isolated ischemic rat heart. Put plainly: Cardioprotective effect in ischemic heart models of rats (Langendorff). The conditions noted are these: 10 μM. The protocol: Male rats (300˜450 g, obtained form the experimental animal team of the Korea Research Institute of Chemical Technology) were anaesthetized by the intra-peritoneal injection of sodium pentobarbital at a dose of 100 mg/kg. Heparin (1,000 U/kg) was injected to the tail vein and then the heart was enucleated. Particularly, cannula (PE 240) was inserted to the organ. Rats were mechanically ventilated with a rodent ventilator, in situ aorta cannula was inserted into their aorta. In retorograde perfusion, their hearts were enucleated, then just hung onto Langendorff Apparatus. Tissue attached at the heart was removed. Heart was perfused in oxygenated modified Krebs-Henseleit bicarbonate buffer (composition<mM/L>116 NaCl, 4.7 KCl, 1.1 MgSO4, 1.17 KH2PO4, 24.9 NaHCO3, 2.52 CaCl2, 8.32 Glucose, 2.0 Pyruvate) at a constant perfusion pressure (85 mmHg). A metal cannula attached to latex balloon filled with solvent (ethanol: water=1:1 (v/v)) was placed in the left ventricle through pulmonary vein and connected to a isovolumetric pressure transducer (H.S.E., Germany) for measurement of left ventricular pressure (LVP). The hearts were allowed to equilibrate for 15 min, at which time left ventricular end-diastolic pressure (EDP) was adjusted to 5 mmHg and this balloon volume was maintained throughout the experiment.
Baseline cardiac contractile function, heart rate (HR), and coronary flow (CF) were measured. Cardiac contractile function was calculated by […], yielding LVDP (left ventricular developed pressure). Double product RPP (rate-pressure product) (DP), another important parameter for indirectly assessing cardiac performance in Langendorff heart impossible to measure cardiac output was calculated by multiplying HR by LVDP.
Throughout the experiment, total coronary blood flow was measured by the use of coronary flow probe (diameter: 1.0 mm) installed in aortic cannula with electromagnetic flowmeter. Temperature of heart was steadily maintained by immersing the heart at 37° C. in physiological saline solution to which 95% O2/5% CO2 was constantly supplied. After stabilization for 15 min, the hearts were pre-treated for 10 min in vehicle (0.04% DMSO) or mixture containing the compound of the present invention or control material. Thereafter, cardiac contractile function, HR and CF were repeatedly measured. Global ischemia was induced by completely shutting off the perfusate for 30 min. Severity of ischemia was determined as the time to contracture (TTC, min) during global ischemia in which the first 5 mmHg increase in EDP was observed. Then, the hearts were reperfused and, 30 min later, contractile functions (LVDP, HR and CF) was repeatedly measured. After reperfusion was accomplished for 30 min, LDH (lactate dehydrogenase) was measured as a sensitive index for loss of cell viability with a kit.

Consider `CCOC(=O)c1ccc(N(Cc2nnn(C)n2)[C@H]2c3cc(N)ccc3O[C@](C)(C(OC)OC)[C@@H]2O)cc1` [Example 54, (2S,3R,4S)-6-amino-4-[N-(4-ethoxycarbonylphenyl)-N-(2-methyl-2H-tetrazol-5-ylmethyl)amino]-3-hydroxy-2-methyl-2-dimethoxymethyl-3,4-dihydro-2H-1-benzopyran], for which the LD50 in data set [1] was more than 2000 mg/kg. Further, the “inhibitory effect against lipid peroxidation induced by iron (%, 100 μM)” value (“inhibitory effect … (%, 100 μM)” for short) in the data set with brain homogenate stood at 87%. Further, in the data set on cortical neuron cells (24 hours), the “protective effect on neuron cell: Inhibition (%, 30 μM compound addition)” value is listed as 98% and the IC50 was 1.5 µM. The compound also returned an IC50 with cortical neuron cells (Cortical neurone, 24 h) of less than 2 µM.
For `COC(OC)[C@]1(C)Oc2ccc(N)cc2[C@H](N(Cc2nnn(C)n2)c2ccc(OC(F)(F)F)cc2)[C@H]1O` [Example 83, (2R,3R,4S)-6-amino-4-[N-(4-trifluoromethoxyphenyl)-N-(2-methyl-2H-tetrazol-5-ylmethyl)amino]-3-hydroxy-2-methyl-2-dimethoxymethyl-3,4-dihydro-2H-1-benzopyran], the LD50 in data set [1] is more than 2000 mg/kg. For the same compound, the IC50 is more than 30 µM in the data set with isolated rat aorta and 3.7 µM with cortical neuron cells (Cortical neurone, 24 h). The “protective effect on neuron cell: Inhibition (%, 30 μM compound addition)” value in the data set on cortical neuron cells (24 hours) is 80%.
Turning to `COC(OC)[C@@]1(C)Oc2ccc([N+](=O)[O-])cc2[C@H](N(Cc2nnn(C)n2)c2ccc(O)cc2C)[C@H]1O` [Example 64, (2S,3R,4S)-6-nitro-4-[N-(2-methyl-4-hydroxyphenyl)-N-(2-methyl-2H-tetrazol-5-ylmethyl)amino]-3-hydroxy-2-methyl-2-dimethoxymethyl-3,4-dihydro-2H-1-benzopyran], the “inhibitory effect … (%, 100 μM)” value with brain homogenate worked out at 79%.
For the compound `COC(OC)[C@@]1(C)Oc2ccc([N+](=O)[O-])cc2[C@@H](N(Cc2nnn(C)n2)c2ccc(Cl)cc2)[C@@H]1O` [Example 1, (2S,3S,4R)-6-nitro-4-[N-(4-chlorophenyl)-N-(2-methyl-2H-tetrazol-5-ylmethyl)amino]-3-hydroxy-2-methyl-2-dimethoxymethyl-3,4-dihydro-2H-1-benzopyran], the LD50 in data set [1] is more than 2000 mg/kg. In addition, the IC50 stood at 7.14 µM in the data set on isolated rat aorta and 18.1 µM in the data set on cortical neuron cells (Cortical neurone, 24 h). The “protective effect on neuron cell: Inhibition (%, 30 μM compound addition)” value in the data set on cortical neuron cells (24 hours) came out at 71%. Further, the “EDP (mmHg)” value in data set [2] (after 30 min global ischemia and reperfusion) was found to be 29.3 mmHg. For the same compound, in data set [2] (reperfusion LDH release), the “LDH (u/g)” value came to 15.2 u/g. For the same compound, in data set [2] (reperfusion, % of pre-treatment DP), the “LVDP X HR (%)” value amounted to 46.8%. Moreover, the “TTC” value in data set [2] (time to contracture during global ischemia) amounted to 24.8 min.
On to `COC(OC)[C@]1(C)Oc2ccc(N)cc2[C@@H](N(Cc2nnn(C)n2)c2ccc(OC(F)(F)F)cc2)[C@@H]1O` [Example 85, (2R,3S,4R)-6-amino-4-[N-(4-trifluoromethoxyphenyl)-N-(2-methyl-2H-tetrazol-5ylmethyl)amino]-3-hydroxy-2-methyl-2-dimethoxymethyl-3,4-dihydro-2H-1-benzopyran], for which the LD50 in data set [1] is more than 2000 mg/kg. Further, the IC50 in the data set on isolated rat aorta was more than 30 µM; with cortical neuron cells (Cortical neurone, 24 h), less than 2 µM; in the data set with cortical neuron cells (24 hours), 1.8 µM. Also, in the data set with cortical neuron cells (24 hours), the “protective effect on neuron cell: Inhibition (%, 30 μM compound addition)” value is on record as 119%.
`COC(OC)[C@@]1(C)Oc2ccc(N)cc2[C@@H](N(Cc2nnn(C)n2)c2ccc(Cl)cc2)[C@@H]1OC(C)=O` [Example 89, (2S,3S,4R)-6-amino-4-[N-(4-chlorophenyl)-N-(2-methyl-2H-tetrazol-5-ylmethyl)amino]-3-acetoxy-2-methyl-2-dimethoxymethyl-3,4-dihydro-2H-1-benzopyran]: the LD50 in data set [1] was more than 2000 mg/kg. For the same compound, the “inhibitory effect … (%, 100 μM)” value in the data set with brain homogenate came out at 81%.
As to `COC(OC)[C@@]1(C)Oc2ccc(N)cc2[C@H](N(Cc2nnn(C)n2)c2cccc(Cl)c2)[C@H]1O` [Example 26, (2S,3R,4S)-6-amino-4-[N-(3-chlorophenyl)-N-(2-methyl-2H-tetrazol-5-ylmethyl)amino]-3-hydroxy-2-methyl-2-dimethoxymethyl-3,4-dihydro-2H-1-benzopyran], the LD50 in data set [1] was more than 2000 mg/kg. In addition, the IC50 with isolated rat aorta stood at 24.6 µM; in the data set with cortical neuron cells (Cortical neurone, 24 h) it was 2.2 µM. The “protective effect on neuron cell: Inhibition (%, 30 μM compound addition)” value in the data set on cortical neuron cells (24 hours) was 97%.
As to `COC(OC)[C@@]1(C)Oc2ccc([N+](=O)[O-])cc2[C@@H](N(Cc2ccccc2)Cc2nnn(C)n2)[C@@H]1O` [Example 7, (2S,3S,4R)-6-nitro-4-[N-benzyl-N-(2-methyl-2H-tetrazol-5-ylmethyl)amino]-3-hydroxy-2-methyl-2-dimethoxymethyl-3,4-dihydro-2H-1-benzopyran], the LD50 in data set [1] was more than 2000 mg/kg. In addition, the IC50 in the data set with isolated rat aorta is 5.59 µM; in the data set on cortical neuron cells (Cortical neurone, 24 h), 34.1 µM. Moreover, the “protective effect on neuron cell: Inhibition (%, 30 μM compound addition)” value with cortical neuron cells (24 hours) stood at 59%.
